# Test results published in patent publication US12408664B2 (priority 2018, dated 2025).
# What was measured:
# M. poae [1] = assay type: cell-based, Magnaporthe poae; settings: MEB with 1%, 2%, 5% or 10% (w/v) calcium propionate; five days
# turfgrass [2] = assay: Golf Course 1: appearance of treated turfgrass; assay type: in vivo, Festuca rubra; settings: after 10 days
# Method: Calcium propionate was dissolved in water to form a 5% (w/v) solution. […] Zone 1 was left untreated, Zone 2 was treated with 2.5 grams calcium propionate per square meter, Zone 3 was treated with 5 grams of calcium propionate per square meter, and Zone 4 was treated with 10 grams of calcium propionate per square meter. The turfgrass was comprised primarily of Festuca rubra. The calcium propionate 5% (w/v) solution was sprayed onto the turfgrass.
# The four zones were visually inspected for dollar spot after 10 days. […] In contrast, dollar spot could, still be visually detected in untreated Zone 1.
# S. homoeocarpa [3] = assay: Established liquid cultures, two days calcium propionate then washout; assay type: cell-based, Scerotinia homoeocarpa
# Method: (§1) To further examine the impact of calcium propionate on established liquid cultures, MEB was inoculated by plug transfer and cultures were allowed to grow for one to six days. Following this, calcium propionate was added to active cultures to a final concentration of 1%, 2%, or 5% (w/v); control cultures had no calcium propionate. Calcium propionate was then added to established one to six day old cultures and cultures were allowed to grow in the presence of calcium propionate for two days, after which, calcium propionate was washed out and cultures were returned to MEB only. Growth following calcium propionate washout was recorded over 14 days.
# M. poae [4] = assay type: cell-based, Magnaporthe poae
# R. solani [5] = assay: Plug transfer to PDA plates without calcium propionate (fungistatic or fungicidal); assay type: cell-based, Rhizoctonia solani
# S. homoeocarpa [6] = assay: New inoculants in MEB liquid culture amended with calcium propionate; assay type: cell-based, Scerotinia homoeocarpa; settings: MEB with 1, 2, 5 and 10% (w/v) calcium propionate; five days
# Method: (§2) To examine the effective dose range in liquid culture, malt extract broth (MEB) was prepared and amended with calcium propionate at concentrations of 1, 2, 5 and 10% (w/v). Unamended MEB was used as a control for growth. Each of the four microbes identified in Example 1 was tested twice by inoculating MEB using agarose plugs from luxuriant cultures. Growth was observed over five days. In each microbe examined, visible growth in liquid culture was apparent by day 2 following inoculation with well-established growth by 4 days in the absence of calcium propionate.
# R. solani [7] = assay: Established liquid cultures, two days calcium propionate then washout; assay type: cell-based, Rhizoctonia solani
# Method: as §1
# dollar spot = assay: Golf Course 2: infected live turfgrass, visual detection of dollar spot; assay type: in vivo, Scerotinia homoeocarpa; settings: 3-4 grams per square meter every 10 days, 5% (w/v) solution sprayed; 10 days following initial application
# Method: (§3) Calcium propionate was dissolved in water to form a 5% (w/v) solution. […] The turfgrass was comprised primarily of Agrostis capillaris. The calcium propionate 5% (w/v) solution was sprayed onto the turfgrass at a concentration of 3-4 grams per square meter every 10 days.
# Fusarium oxysporum = assay: Golf Course 2: infected live turfgrass, visual detection of Fusarium oxysporum infection; assay type: in vivo; settings: 3-4 grams per square meter every 10 days, 5% (w/v) solution sprayed; 10 days following initial application
# Method: as §3
# turfgrass [8] = assay: Golf Course 2: appearance of treated turfgrass; assay type: in vivo, Agrostis capillaris; settings: 3-4 grams per square meter every 10 days; 10 days following initial application
# Method: as §3
# R. solani [9] = assay: New inoculants in MEB liquid culture amended with calcium propionate; assay type: cell-based, Rhizoctonia solani; settings: MEB with 1, 2, 5 and 10% (w/v) calcium propionate; five days
# Method: as §2
# R. solani [10] = assay: Zone of inhibition assay on PDA plates; assay type: cell-based, Rhizoctonia solani
# Method: To test the efficacy of calcium propionate (CaP) against the four microbes listed above, zone of inhibition assays were performed. Wells were bored in potato dextrose agarose (PDA) plates then amended with […] calcium propionate at concentrations of 0.1%, 0.2%, 0.3%, 0.4%, and 0.5% (w/v). Control plates were amended with […] dH2O. Plates were inoculated using plugs from active cultures. Growth patterns were observed over seven days. Representative results with M. poae are shown at three days following inoculation (FIG. 1A) and seven days following inoculation (FIG. 1B).
# The zone of inhibition assays described in Example 1 were performed using calcium propionate doses of 0.5%, 1%, 2%, 3%, and 4% (w/v). Growth diameter was recorded at 2, 5, and 7 days post inoculation. The data shown in Table 1 represent the average±standard deviation (SD) of two replicate plates for each strain tested.
# Zone of inhibition assays using PDA plates amended with 5-12% (w/v) calcium propionate were performed as described above. As a control, plates were amended with a composition comprising propiconazole, a commonly used fungicidal treatment for microbe infection of turfgrass, sold under the trademark Banner MaxxII®. Growth diameter was recorded for 13 days post inoculation. The data shown in Table 2 represent the average±standard deviation (SD) of three replicate plates for each strain tested. Inoculants of S. homoeocarpa, M. poae, and R. solani generally grow to luxuriant culture, covering the entire surface of the plate (8.5 cm growth) in 7 days.
# [11] = 1%, 2% or 5% (w/v), established one to six day old cultures, two days
# [12] = all concentrations tested (1-5% w/v)
smiles,measurement,setting,value
CCC(=O)[O-].CCC(=O)[O-].[Ca+2] [calcium propionate],"growth of disrupted culture, M. poae",M. poae [1],No growth was observed
same,appearance of the turfgrass,turfgrass [2]; Zone 2: 2.5 grams per square meter,appeared healthy
same,appearance of the turfgrass,turfgrass [2]; Zone 3: 5 grams per square meter,appeared healthy
same,effect on the turfgrass,turfgrass [2]; Zone 4: 10 grams per square meter,burning effect
same,"growth recovery over 14 days after removal, S. homoeocarpa",S. homoeocarpa [3]; 1% or 2% (w/v) calcium propionate,varying degrees of growth recovery
same,"growth while calcium propionate was present, S. homoeocarpa",S. homoeocarpa [3]; [11],growth was inhibited
same,"growth recovery over 14 days after removal, S. homoeocarpa",S. homoeocarpa [3]; 5% (w/v) treatment,no growth recovery was observed
same,"growth three days following removal of calcium propionate, S. homoeocarpa",S. homoeocarpa [3]; [12],continued growth inhibition
same,"fungistatic or fungicidal effect, M. poae",M. poae [4]; 5% (w/v) calcium propionate,fungicidal effect
same,"growth on unamended PDA after plug transfer, M. poae","M. poae [4]; plugs initially grown on 5, 7.5, 10 or 12% (w/v) calcium propionate, observed 14 days",No growth was seen
same,concentration required to achieve a fungicidal effect on R. solani,R. solani [5],10-12 % (w/v)
same,"fungistatic or fungicidal effect, R. solani",R. solani [5]; 5% (w/v) calcium propionate,fungistatic rather than fungicidal
same,"growth on unamended PDA after plug transfer, R. solani","R. solani [5]; plugs from 5% and 7.5% (w/v) calcium propionate plates, 6-7 days following transfer",luxuriant growth
same,"growth on unamended PDA after plug transfer, R. solani",R. solani [5]; plugs from 10% and 12% (w/v) calcium propionate plates,did not grow
same,"growth in liquid culture, S. homoeocarpa",S. homoeocarpa [6],no growth was observed
same,"growth while calcium propionate was present, R. solani",R. solani [7]; [11],growth was inhibited
same,"growth inhibition over two weeks after removal, R. solani",R. solani [7]; [12],some minor growth inhibition
same,"growth three days following removal of calcium propionate, R. solani",R. solani [7]; concentrations examined (1-5% w/v),robust growth was observed
same,visual detection of dollar spot infection,dollar spot,could no longer be visually detected
same,visual detection of Fusarium oxysporum infection,Fusarium oxysporum,could no longer be visually detected
same,appearance of the turfgrass,turfgrass [8],appeared healthy
same,"growth in liquid culture, R. solani",R. solani [9],no growth was observed
same,"Growth, R. solani","R. solani [10]; 5-12% (w/v) calcium propionate, day 2, average ± SD of three plates",2.6 ± 0.3 cm
same,"Growth, R. solani","R. solani [10]; 5-12% (w/v) calcium propionate, day 3, average ± SD of three plates",4.3 ± 0.3 cm
same,"Growth, R. solani","R. solani [10]; 5-12% (w/v) calcium propionate, day 6, average ± SD of three plates",8.5 ± 0 cm
same,"Growth, R. solani","R. solani [10]; 5-12% (w/v) calcium propionate, day 7, average ± SD of three plates",8.5 ± 0 cm
same,"Growth, R. solani","R. solani [10]; 5-12% (w/v) calcium propionate, day 10, average ± SD of three plates",8.5 ± 0 cm
same,"Growth, R. solani","R. solani [10]; 5-12% (w/v) calcium propionate, day 13, average ± SD of three plates",8.5 ± 0 cm
same,inhibition of R. solani growth,R. solani [10]; calcium propionate concentrations up to 12% (w/v),no inhibition
same,"growth inhibition, R. solani","R. solani [10]; wells 0.1-0.5% (w/v) calcium propionate, observed over seven days",no growth inhibition was observed
same,"growth inhibition, R. solani",R. solani [10]; wells 0.5-4% (w/v) calcium propionate,uninhibited
same,"Growth, R. solani","R. solani [10]; wells 0.5-4% (w/v) calcium propionate, day 2, average ± SD of two plates",3.3 ± 0.4 cm
same,"Growth, R. solani","R. solani [10]; wells 0.5-4% (w/v) calcium propionate, day 5, average ± SD of two plates",8.5 ± 0 cm
same,"Growth, R. solani","R. solani [10]; wells 0.5-4% (w/v) calcium propionate, day 7, average ± SD of two plates",8.5 ± 0 cm
